Data reported in patent US4288439A, “Anti-ulcer treatment method” (priority 1978, dated 1981).

Legend:
[1] = stress-induced erosion test (Senay & Levine), anti-ulcer activity; format: in vivo; settings: Dose 100 mg/kg
Experimental: (§1) Anti-ulcer activity was determined by the stress-induced erosion test of Senay & Levine, Proc. Soc. Exp. Biol. Med., 124, 1221-3(1967) and anti-secretory activity by the test of H. Shay, D. Sun and H. Greenstein, Gastroenterology, 1954, 26,903-13 as exemplified by Beattie et al in J. Med Chem, 20,714 (1977).

[2] = anti-secretory activity test (Shay et al); format: in vivo
Experimental: as §1

Structure (SMILES)	Stress Induced erosion (Senay & Levine) % inhibition [1] [%]	Anti-Secretory (Shay et al) % change in volt ([2]; Dose 10 mg/kg) [%]	Anti-Secretory (Shay et al) % change in volt ([2]; Dose 30 mg/kg) [%]
C[n+]1ccccc1SCSc1cccc[n+]1C [Example 1, Methylene bis((1-methylpyridinium-2-yl)-thio) diiodide]	71	-32	-62
C[n+]1ccccc1SCCSc1cccc[n+]1C [Example 2, 1,2-Di-((1-methylpyridinium-2-yl)thio)ethane dibromide]	67	–	-48
